Measurements from patent US20050238580A1 (priority 2002, published 2005).

Biological target: T1, intestinal lactase (Homo sapiens, UniProt P09848)
T1 construct: from tissue; host or cells: small-intestinal mucous membrane of living adult human volunteers (in vivo)
Assay: Xylose in urine of human volunteers after oral 4-galactosyl-xylose, evaluated by gas chromatography
Type: in vivo
Conditions: 0.25 g oral
Description: Excretion of xylose in urine after administration of 0.25 g of 4-galactose-xylose to subjects with lactose tolerance, and its reduction in hypolactasic individuals with lactose intolerance is likewise observed by the evaluation technique of xylose different from the colorimetric reaction with fluoroglucinol. This has been shown by administering 0.25 g of 4-galactosyl-xylose to a volunteer with lactose tolerance [individual 1 (also studied in Example 3), Example 15] on one hand, and on the other hand, to a volunteer with lactose intolerance having an intense intestinal lactase deficiency [individual 12 (also studied in Example 12), Example 16], and evaluating xylose by gas chromatography in the total urine collected 3 hours after the intake of the disaccharide with a chromatograph equipped with a flame ionization detector and a 12 m long glass spiral column with an inside diameter of 0.2 mm and a thickness of 0.3 μm. The presence of xylose in urine was detected in its trimethylsilyl derivative form. For this purpose the urine sample was lyophilized and dissolved in 20 μl of pyridine containing 1 mM of benzyl-β-D-xylopyranoside as an internal reference. Then another 20 μl of N-trimethylsilyl imidazole were added as a sililating agent. The mixture was treated with ultrasound for one minute and heated at 60° C. for 30 minutes. Then 1-2 μl of the sample was injected into the gas chromatograph. The temperature of the injector and the detector used was 250° C. and the temperature gradient in the column was the following: 2 minutes at 180° C. and a 5° C. increase per minute until 250° C. was reached. This temperature was maintained for 15 minutes. The concentration of xylose in each sample was calculated from the areas of the peaks corresponding to the chromatograms. The results of these experiments are compiled in FIG. 7, wherein the chromatograms corresponding to the samples of basal urine and of urine taken during 3 hours from an individual with lactose tolerance and an individual with lactose intolerance are shown. […]

T1 sequence (P09848 869-1927): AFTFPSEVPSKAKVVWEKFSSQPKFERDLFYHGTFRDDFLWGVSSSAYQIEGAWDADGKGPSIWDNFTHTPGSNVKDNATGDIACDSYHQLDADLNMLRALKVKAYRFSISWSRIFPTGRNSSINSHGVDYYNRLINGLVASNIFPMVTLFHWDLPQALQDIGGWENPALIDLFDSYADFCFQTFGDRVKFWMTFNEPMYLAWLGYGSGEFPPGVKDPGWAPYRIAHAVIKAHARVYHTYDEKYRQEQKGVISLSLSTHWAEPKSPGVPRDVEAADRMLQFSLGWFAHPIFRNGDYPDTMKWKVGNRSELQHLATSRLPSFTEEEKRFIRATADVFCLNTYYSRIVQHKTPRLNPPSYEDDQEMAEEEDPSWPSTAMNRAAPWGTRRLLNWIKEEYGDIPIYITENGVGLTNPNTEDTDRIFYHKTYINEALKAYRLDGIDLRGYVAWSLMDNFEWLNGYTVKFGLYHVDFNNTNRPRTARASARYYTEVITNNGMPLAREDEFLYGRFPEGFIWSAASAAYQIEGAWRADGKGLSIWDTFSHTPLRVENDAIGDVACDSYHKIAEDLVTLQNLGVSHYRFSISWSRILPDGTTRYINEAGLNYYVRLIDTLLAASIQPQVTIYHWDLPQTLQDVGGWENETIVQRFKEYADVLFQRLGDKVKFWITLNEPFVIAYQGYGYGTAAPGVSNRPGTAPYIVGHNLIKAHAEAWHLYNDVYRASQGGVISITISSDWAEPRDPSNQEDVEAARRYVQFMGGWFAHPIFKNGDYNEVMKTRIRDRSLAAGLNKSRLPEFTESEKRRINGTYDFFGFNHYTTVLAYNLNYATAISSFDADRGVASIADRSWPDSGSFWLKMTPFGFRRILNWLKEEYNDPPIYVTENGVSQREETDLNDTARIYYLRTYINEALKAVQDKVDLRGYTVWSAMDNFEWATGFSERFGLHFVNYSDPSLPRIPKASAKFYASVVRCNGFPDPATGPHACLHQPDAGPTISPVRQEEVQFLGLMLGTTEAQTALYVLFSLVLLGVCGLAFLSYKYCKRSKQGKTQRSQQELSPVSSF

OCC1O[C@@H](O[C@@H]2COC(O)C(O)[C@H]2O)C(O)[C@@H](O)[C@H]1O (stereo partly drawn)
reduction of xylose in urine, individual 12 versus individual 1 (urine of 3 hours): 92% | total amount of xylose in urine of 3 hours (hypolactasic individual 12 with lactose intolerance): 2.1 mg | total xylose in urine of 3 hours (individual 1 with lactose tolerance): 25.2 mg
